We go through 7 molecules from ChEMBL document CHEMBL3227947, “Quantitative structure-activity relationship of 5-(X-benzyl)-2,4-diaminopyrimidines inhibiting bovine liver dihydrofolate reductase” (J Med Chem, 1979).

The experiment deals with T1, Dihydrofolate reductase (Bos taurus) (UniProt P00376).
T1 sequence (whole entry): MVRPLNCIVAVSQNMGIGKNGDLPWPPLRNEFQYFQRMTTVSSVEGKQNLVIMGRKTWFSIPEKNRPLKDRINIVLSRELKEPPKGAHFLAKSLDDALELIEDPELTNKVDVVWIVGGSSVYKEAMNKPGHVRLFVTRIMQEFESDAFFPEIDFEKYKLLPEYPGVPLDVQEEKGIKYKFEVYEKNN
Description: Inhibition of bovine liver dihydrofolate reductase using dihydrofolic acid as substrate
In turn, `CC(=O)Nc1ccc(Cc2cnc(N)nc2N)cc1[N+](=O)[O-]` yielded a log(1/I50) of 5.16.
As to `Nc1ccc(Cc2cnc(N)nc2N)cc1`, the log(1/I50) was 4.57.
The value for `Cc1ccc(Cc2cnc(N)nc2N)cc1` was 4.8; that for `COc1cccc(Cc2cnc(N)nc2N)c1` was 5.02; that for `COc1ccc(Cc2cnc(N)nc2N)cc1OC` was 5.15.
Turning to `Nc1ncc(Cc2ccc(OC(F)(F)F)cc2)c(N)n1`, the log(1/I50) was determined as 4.99.
Under `Nc1ncc(Cc2cccc(C(F)(F)F)c2)c(N)n1` stands 5.53.
